Source: US20250188030A1, “Biphenyl and Phenylpyridine Compounds” (Pfizer Inc., priority 2023, published 2025)
Like-named read-outs stand apart in the source and are kept apart here.

Tests used:
[1] = test system: MM.1S cells; assay: MM1.S 10 Day Proliferation Assay (CellTiter-Glo); format: cell-based, Human
Summary of the method: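 MM.1S cells, 500/well in ultra-low-attachment plates, were pre-incubated 16 h, then exposed to a 10-point 1:3 dilution series (top 10 μM final, 0.1% DMSO) for 10 days at 37 °C, with compound-containing medium refreshed at day 5. Viability was read by CellTiter-Glo luminescence; IC50 came from four-parameter fit.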

[2] = target: KAT2B (Homo sapiens (Human), UniProt Q92831); assay: KAT2B acetyltransferase biochemical assay (RapidFire mass spectrometry, AcCoA to CoA)
KAT2B, sequence (Q92831 2-832): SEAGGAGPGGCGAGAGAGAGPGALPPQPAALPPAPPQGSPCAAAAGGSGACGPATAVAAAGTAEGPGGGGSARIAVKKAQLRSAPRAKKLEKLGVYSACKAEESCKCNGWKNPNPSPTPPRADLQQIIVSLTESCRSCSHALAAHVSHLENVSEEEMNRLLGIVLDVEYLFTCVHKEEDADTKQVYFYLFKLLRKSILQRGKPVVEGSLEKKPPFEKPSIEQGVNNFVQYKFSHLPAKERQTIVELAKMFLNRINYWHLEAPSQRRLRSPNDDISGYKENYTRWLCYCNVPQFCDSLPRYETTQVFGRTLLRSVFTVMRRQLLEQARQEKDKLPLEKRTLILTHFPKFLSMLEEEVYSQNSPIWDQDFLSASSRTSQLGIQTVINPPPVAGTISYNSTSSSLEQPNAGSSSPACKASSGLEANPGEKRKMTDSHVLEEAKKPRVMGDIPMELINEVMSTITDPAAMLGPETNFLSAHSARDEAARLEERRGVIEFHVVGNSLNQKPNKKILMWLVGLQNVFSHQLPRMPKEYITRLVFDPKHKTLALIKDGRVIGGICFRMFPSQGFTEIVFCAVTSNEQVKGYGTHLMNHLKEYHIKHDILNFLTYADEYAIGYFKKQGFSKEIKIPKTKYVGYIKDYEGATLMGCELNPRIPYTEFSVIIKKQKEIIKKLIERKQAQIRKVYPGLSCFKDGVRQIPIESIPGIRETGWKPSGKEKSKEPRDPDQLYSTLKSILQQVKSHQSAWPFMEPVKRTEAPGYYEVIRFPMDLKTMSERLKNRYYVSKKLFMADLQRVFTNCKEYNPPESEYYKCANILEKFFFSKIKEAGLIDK

[3] = target: KAT2A (Homo sapiens (Human), UniProt Q92830); assay: KAT2A acetyltransferase biochemical assay (RapidFire mass spectrometry, AcCoA to CoA)
KAT2A, sequence (Q92830 whole entry): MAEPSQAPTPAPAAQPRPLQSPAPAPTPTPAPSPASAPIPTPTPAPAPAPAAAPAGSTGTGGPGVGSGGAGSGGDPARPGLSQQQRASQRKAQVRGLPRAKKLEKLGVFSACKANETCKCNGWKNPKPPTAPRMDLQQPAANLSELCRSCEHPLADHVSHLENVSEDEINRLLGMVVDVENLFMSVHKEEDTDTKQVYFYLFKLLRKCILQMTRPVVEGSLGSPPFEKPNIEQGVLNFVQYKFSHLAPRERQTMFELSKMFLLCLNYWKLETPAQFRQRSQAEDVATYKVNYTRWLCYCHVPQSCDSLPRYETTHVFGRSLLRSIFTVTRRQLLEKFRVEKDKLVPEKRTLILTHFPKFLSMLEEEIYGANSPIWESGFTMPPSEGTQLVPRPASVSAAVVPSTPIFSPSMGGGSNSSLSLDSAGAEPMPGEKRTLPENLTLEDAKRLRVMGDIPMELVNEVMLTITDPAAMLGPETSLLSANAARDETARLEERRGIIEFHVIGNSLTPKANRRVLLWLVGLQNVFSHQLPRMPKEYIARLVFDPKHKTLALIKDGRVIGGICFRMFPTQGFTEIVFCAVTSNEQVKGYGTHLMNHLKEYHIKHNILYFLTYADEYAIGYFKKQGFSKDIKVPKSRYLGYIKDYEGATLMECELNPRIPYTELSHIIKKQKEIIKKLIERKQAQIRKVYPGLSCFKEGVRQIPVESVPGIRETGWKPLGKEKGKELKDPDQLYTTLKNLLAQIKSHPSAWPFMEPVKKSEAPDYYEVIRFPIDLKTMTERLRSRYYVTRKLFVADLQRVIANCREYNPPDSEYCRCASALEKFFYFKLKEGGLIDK

[4] = test system: H3K9AC (HT1080 cells); assay: H3K9AC Sandwich ELISA Assay in HT1080 cells (KAT2A primary cell-based screening assay); design: species or system Human
Summary of the method: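 Acetylated H3K9 quantified by luminescent sandwich ELISA (total H3 capture, H3K9ac detection) on HCl lysates of HT1080 cells. Cells had 24 h compound exposure at 37 °C, top concentration 10 µM, 10-point 3-fold series, 0.1% DMSO; IC50 from four-parameter fitting.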

[5] = read-out: KAT2B Ki at 1 μM AcCoA, 1 μM AcCoA, 5 μM H3 1-21 peptide, 0.5 nM KAT2B, 90-minute reaction
[6] = read-out: KAT2A Ki at 1 μM AcCoA, 5 μM H3 1-21 peptide, 0.5 nM KAT2A, 90-minute reaction
[7] = Homo sapiens, HT-1080, H3K9AC sandwich ELISA

| Structure (SMILES) | IC50 ([1]; Homo sapiens, MM1.S, 240 h) [nM] | Ki [2, 5] [nM] | Ki [3, 6] [nM] | IC50 [4, 7] [nM] | IC50 ([4]; H3K9AC sandwich ELISA) [nM] | Ki [2] [nM] | Ki ([3]; KAT2A Ki at 1 μM AcCoA, 5 μM H3 1-21 peptide, 0.5 nM KAT2A, 90-minute reaction) [nM] | IC50 [1] [nM] |
| --- | --- | --- | --- | --- | --- | --- | --- | --- |
| CN1CC(C)(C)C[C@H]1C(=O)N[C@@H]1CC[C@@H](Oc2cccc(C(=O)O)c2-c2cccc(F)c2C2CCC2)C1 (atropisomer, axis not shown) [Example H3, (1ψ)-2′-cyclobutyl-3′-fluoro-6-({(1R,3R)-3-[(1,4,4-trimethyl-L-prolyl)amino]cyclopentyl}oxy)[1,1′-biphenyl]-2-carboxylic acid] | 219 | 32.9 | 18.3 | 57.2 |  |  |  |  |
| CN1CC(C)(C)C[C@H]1C(=O)N[C@@H]1CC[C@@H](Oc2cccc(CC(=O)O)c2-c2ccccc2C2CCC2)C1 (atropisomer, axis not shown) [Example H6, [(1ψ)-2′-cyclobutyl-6-({(1R,3R)-3-[(1,4,4-trimethyl-L-prolyl)amino]cyclopentyl}oxy)[1,1′-biphenyl]-2-yl]acetic acid] | 679 | 63.6 |  |  | 84.2 |  |  |  |
| CN1CC(C)(C)C[C@H]1C(=O)N[C@@H]1CC[C@@H](Oc2cccc(C(=O)NS(=O)(=O)N3CC(F)C3)c2-c2cccc(F)c2C2CCC2)C1 (atropisomer, axis not shown) [Example I12, N-[(1R,3R)-3-({(1ψ)-2′-cyclobutyl-3′-fluoro-6-[(3-fluoroazetidine-1-sulfonyl)carbamoyl][1,1′-biphenyl]-2-yl}oxy)cyclopentyl]-1,4,4-trimethyl-L-prolinamide] | 123 | 20.3 | 20.6 | 6.43 |  |  |  |  |
| CC(C)(C(=O)O)c1ccc(O[C@@H]2CC[C@@H](NC(=O)[C@]3(F)CNC4(CCCC4)C3)C2)c(-c2cccc(F)c2C2CCC2)c1 (single isomer, unassigned) [Example A6] | 92.4 | 1.21 | 0.54 | 7.67 |  |  |  |  |
| CC1(C)CNC[C@](F)(C(=O)N[C@@H]2CC[C@@H](Oc3ccc(C(C)(C)C(=O)O)cc3-c3cccc(F)c3C3CCC3)C2)C1 (single isomer, unassigned) [Example A16] | 144 | 2.43 | 1.39 |  | 13.4 |  |  |  |
| CC1(C)CNC[C@](F)(C(=O)N[C@@H]2CC[C@@H](Oc3ccc(CC(=O)O)cc3-c3cccc(F)c3C3CCC3)C2)C1 (single isomer, unassigned) [Example A23] | 60 | 2.85 | 0.57 | 6.36 |  |  |  |  |
| CCS(=O)(=O)NC(=O)C(C)(C)c1ccc(O[C@@H]2CC[C@@H](NC(=O)C3(F)CNC4(CCC4)C3)C2)c(-c2cccc(F)c2C2CCC2)c1 (single isomer, unassigned) [Example B2] | 7.51 |  |  |  | 3.14 | 0.13 | 0.13 |  |
| CC(C)S(=O)(=O)NC(=O)C(C)(C)c1ccc(O[C@@H]2CC[C@@H](NC(=O)[C@]3(F)CNC4(CCC4)C3)C2)c(-c2cccc(F)c2C2CCC2)c1 (single isomer, unassigned) [Example B4] | 8.38 | 0.15 | 0.14 | 3.12 |  |  |  |  |
| CCS(=O)(=O)NC(=O)C(C)(C)c1ccc(O[C@@H]2CC[C@@H](NC(=O)[C@@]3(F)CNC(C)(C)C3)C2)c(-c2cccc(F)c2C2CCC2)c1 (single isomer, unassigned) [Example B13] |  | 0.35 | 0.14 |  | 1.96 |  |  | 38.8 |
| CCS(=O)(=O)NC(=O)C(C)(C)c1ccc(O[C@@H]2CC[C@@H](NC(=O)[C@@]3(F)CNC4(CCCC4)C3)C2)c(-c2cccc(F)c2C2CCC2)c1 (single isomer, unassigned) [Example B20] | 1.76 | 0.06 | 0.05 | 0.93 |  |  |  |  |
| CC1(C)CNCC(F)(C(=O)N[C@@H]2CC[C@@H](Oc3ccc(C(C)(C)C(=O)NS(=O)(=O)C4CC4)cc3-c3cccc(F)c3C3CCC3)C2)C1 (single isomer, unassigned) [Example B28] | 5 | 0.19 | 0.14 | 2.7 |  |  |  |  |
| CC(C)(C(=O)NS(C)(=O)=O)c1ccc(O[C@@H]2CC[C@@H](NC(=O)[C@@]3(F)CNC4(CCCC4)C3)C2)c(-c2cccc(F)c2C2CCC2)c1 (single isomer, unassigned) [Example C4] |  | 0.14 | 0.26 |  | 1.25 |  |  | 5.49 |
| CC1(C)C[C@@](F)(C(=O)N[C@@H]2CC[C@@H](Oc3ccc(C(C)(C)C(=O)NS(C)(=O)=O)cc3-c3cccc(F)c3C3CCC3)C2)CN1 (single isomer, unassigned) [Example C5] | 12.6 | 0.18 | 0.17 | 10.2 |  |  |  |  |
| CC1(C)C[C@@](F)(C(=O)N[C@@H]2CC[C@@H](Oc3ccc(C(C)(C)C(=O)NS(=O)(=O)N4CCC4)cc3-c3cccc(F)c3C3CCC3)C2)CN1 (single isomer, unassigned) [Example C7] | 17.5 | 0.04 | 0.07 | 5.79 |  |  |  |  |
| CN(C)S(=O)(=O)NC(=O)C(C)(C)c1ccc(O[C@@H]2CC[C@@H](NC(=O)[C@@]3(F)CNC(C)(C)C3)C2)c(-c2cccc(F)c2C2CCC2)c1 (single isomer, unassigned) [Example C9] | 13.7 | 0.17 | 0.06 | 6.96 |  |  |  |  |
| CCc1c(F)cccc1-c1cc(C(C)(C)C(=O)NS(C)(=O)=O)ccc1O[C@@H]1CC[C@@H](NC(=O)[C@]2(F)CNC3(CCC3)C2)C1 (single isomer, unassigned) [Example C12] | 89.6 | 0.93 | 0.5 | 11 |  |  |  |  |
| CC(C)(C(=O)NS(C)(=O)=O)c1ccc(O[C@@H]2CC[C@@H](NC(=O)[C@]3(F)CNC4(CCC4)C3)C2)c(-c2cccc(F)c2C2CC2)c1 (single isomer, unassigned) [Example C14] | 63.7 | 5.62 | 1.41 | 17.7 |  |  |  |  |
| CC(C)(C(=O)NS(C)(=O)=O)c1ccc(O[C@@H]2CC[C@@H](NC(=O)[C@@]3(F)CNC4(CCCC4)C3)C2)c(-c2cccc(F)c2C2CCC2)c1 (single isomer, unassigned) [Example C16] |  | 0.06 | 0.08 |  | 23.2 |  |  | 81.8 |
| CC(C)c1c(F)cccc1-c1cc(C(C)(C)C(=O)NS(C)(=O)=O)ccc1O[C@@H]1CC[C@@H](NC(=O)[C@@]2(F)CNC3(CCC3)C2)C1 (single isomer, unassigned) [Example C19] |  | 0.8 | 0.12 |  | 5.06 |  |  | 66.7 |
| CC(C)(C(=O)NS(=O)(=O)C1(C)CC1)c1ccc(O[C@@H]2CC[C@@H](NC(=O)[C@@]3(F)CNC4(CCC4)C3)C2)c(-c2cccc(F)c2C2CC2)c1 (single isomer, unassigned) [Example C21] | 13.7 | 0.11 | 0.09 |  | 1.11 |  |  |  |
| CCc1c(F)cccc1-c1cc(C(C)(C)C(=O)NS(=O)(=O)CC)ccc1O[C@@H]1CC[C@@H](NC(=O)[C@@]2(F)CNC3(CCCC3)C2)C1 (single isomer, unassigned) [Example C24] | 9.83 | 0.22 | 0.34 | 2.77 |  |  |  |  |
| CCc1c(F)cccc1-c1cc(C(C)(C)C(=O)NS(=O)(=O)CC)ccc1O[C@@H]1CC[C@@H](NC(=O)[C@@]2(F)CNC3(CCCC3)C2)C1 (single isomer, unassigned) [Example C25] |  | 0.55 | 0.14 |  | 1.71 |  |  | 9.29 |
| CC(C)c1ccccc1-c1cc(C(=O)O)ccc1O[C@@H]1CC[C@@H](NC(=O)[C@@H]2CC(C)(C)CN2C)C1 [Example D5, 2′-(propan-2-yl)-6-({(1R,3R)-3-[(1,4,4-trimethyl-L-prolyl)amino]cyclopentyl}oxy)[1,1′-biphenyl]-3-carboxylic acid] |  | 58.8 | 12.8 | 30.4 |  |  |  |  |
